Assay results taken from the CheMixHub viscosity set.

Assay: xn = mol fraction of the nth substance listed

COC(C)(C)C + CCCCCCCC
viscosity [mPa·s], 101 kPa
Settings | 293.15 K | 298.15 K | 303.15 K | 308.15 K
x1 = 0.0937 | 0.5238 | 0.5009 | 0.4686 | 0.4492
x1 = 0.1345 | – | – | 0.444 | –
x1 = 0.1875 | 0.5065 | 0.4844 | 0.454 | 0.4355
x1 = 0.2831 | – | – | 0.423 | –
x1 = 0.2942 | 0.4873 | 0.4666 | 0.4382 | 0.4201
x1 = 0.3682 | – | – | 0.417 | –
x1 = 0.412 | 0.4668 | 0.447 | 0.4207 | 0.4035
x1 = 0.4989 | – | – | 0.406 | –
x1 = 0.511 | 0.4502 | 0.4313 | 0.4067 | 0.3903
x1 = 0.5482 | – | – | 0.401 | –
x1 = 0.5952 | 0.4367 | 0.4189 | 0.3957 | 0.3793
x1 = 0.699 | 0.4201 | 0.4027 | 0.3811 | 0.3653
x1 = 0.791 | – | – | 0.388 | –
x1 = 0.7965 | 0.4039 | 0.3871 | – | 0.3518
x1 = 0.8407 | – | – | 0.381 | –
x1 = 0.9009 | 0.3867 | 0.3707 | 0.3523 | 0.3376

Clc1ccccc1 + CCCCCCCCCC
viscosity [mPa·s], 101 kPa
Settings | x1 = 0.1146 | x1 = 0.1985 | x1 = 0.31 | x1 = 0.3792 | x1 = 0.4894 | x1 = 0.6146 | x1 = 0.6949 | x1 = 0.8073 | x1 = 0.9173
308.15 K | 0.7161 | 0.703 | 0.6849 | 0.6723 | 0.6588 | 0.6526 | 0.6521 | 0.6598 | 0.6691
313.15 K | 0.6733 | 0.6572 | 0.6458 | 0.6387 | 0.6287 | 0.624 | 0.6222 | 0.6228 | 0.6302

Clc1cccc2ccccc12 + CCCO
viscosity [mPa·s], 101.33 kPa
Settings | x1 = 0.1004 | x1 = 0.2017 | x1 = 0.2983 | x1 = 0.395 | x1 = 0.5003 | x1 = 0.6002 | x1 = 0.6993 | x1 = 0.7991 | x1 = 0.9003
298.15 K | 1.968 | 2.039 | 2.091 | 2.172 | 2.255 | 2.349 | 2.448 | 2.567 | 2.716
303.15 K | 1.745 | 1.805 | 1.854 | 1.918 | 1.999 | 2.077 | 2.166 | 2.275 | 2.417
308.15 K | 1.57 | 1.62 | 1.672 | 1.714 | 1.789 | 1.86 | 1.943 | 2.043 | 2.178
